Laboratory results as given in publication PMC6856805, “Environmental Risk Assessment for the Active Pharmaceutical Ingredient Mycophenolic Acid in European Surface Waters” (Environmental Toxicology and Chemistry, 2019).
“And” between values parts separate entries of the source, which are not always exact repeats. Equal entries are not always repeated. Where two headings read alike, the source gives them in different places.

Tests used:
[1] = OECD test guideline 106 batch equilibrium adsorption test; type: physicochemical
Method: An OECD 106 phase I batch equilibrium adsorption test was performed by Toxi-Coop, Balatonfűred, Hungary (Halász-Laky 2018) with MPA and three soils plus two activated sludges of different characteristics (pHKCl, organic carbon (OC) content, plus for the soils sand fraction, silt fraction, clay fraction and USDA soil texture).
In short, the substrates were put in contact with MPA in aqueous 0.01 M CaCl2 solutions; the mixture was agitated for an appropriate time to reach equilibrium, in the case of MPA for 10 hours. The soil/sludge suspensions were then separated and the aqueous phase diluted twofold with the mobile HPLC phase, analysed by HPLC (Supplemental Information) and the amount of test item in the water phase calculated. The soil or sludge phases were extracted twice with acetonitrile/water/1 mg/mL NaOH solution (75/75/2, v/v/v); the extracts were diluted twofold with the mobile phase and then analysed by HPLC. Based on the analytics the mass balance could be established. The adsorption constant Kd was calculated as MPA concentration adsorbed to substrate divided by MPA concentration in aqueous CaCl2 solution; subsequently the Kd was normalised to the OC content to result in the KOC for the different substrates (Halász-Laky 2018).

[2] = Derivation of predicted no-effect concentrations (PNEC) for STPs and surface water
From the text: The surface (fresh) water PNECSW was derived in 2 ways, from the lowest chronic NOEC on the one hand and from the lowest chronic 10% effect concentration (EC10) on the other, from (sub)chronic tests with fish, daphnids, green algae, and cyanobacteria (for the latter 2 the NOErC/ErC10 for growth rate [r] was used), using an assessment factor of 10 (Committee for Medicinal Products for Human Use 2015).

[3] = parameters: method as in Wishart et al. 2018; Royal Pharmaceutical Society 2018; conditions: ref Wishart et al. 2018; Royal Pharmaceutical Society 2018; cited from earlier work
[4] = tested on: Rhaphidocelis (Pseudokirchneriella) subcapitata; conditions: cited from earlier work
Cyprinus carpio = tested on: Cyprinus carpio; parameters: method as in FASS 2018; conditions: OECD 203; ref FASS 2018; cited from earlier work
[5] = cited from earlier work; for k photo: ref Franquet‐Griell et al. (2017a)
[6] = Antibiotic resistance risk quotient (PEC or MEC / PNECABR)
Method: (§1) Antibiotic resistance risk is assessed through comparing PECs or MECs with a PNEC for formation or maintenance of antibiotic resistance (PNECABR). There is no universally accepted or regulatory algorithm for deriving a reliable PNECABR for bacteria, so for the time being this is approximated by applying assessment factors to bacterial minimal inhibitory concentrations (MICs). […] To be fully consistent with Bengtsson‐Palme and Larsson's (2016) approach to PNECABR derivation, the authors were contacted for help; they (J. Bengtsson‐Palme, Department of Infectious Diseases, Institute of Biomedicine, The Sahlgrenska Academy, University of Gothenberg, Gothenberg, Sweden, personal communication) state that “we only use species with 10 or more MIC observations, to avoid drawing conclusions from insufficient data […] . The only species with >10 observations in the Noto et al. (1969) paper is S[taphylococcus] aureus. In addition, when the MIC1% are selected, only one MIC [J.O.Straub's italics] value is selected per species (the lowest). Finally, the uncertainty factor for low sampling numbers is calculated as: (observed lowest MIC) × (number of tested species) ÷ 41.” Both these provisional PNECABR values were derived from the MPA MICs; the lower was selected and compared with the PECs and MECs.
This provisional PNECABR of 64 µg MPA/L can now be compared with the PECs for STPs and surface water and with the highest MECs available. […] For surface waters, all PECs including the highest, the Guadalquivir River low‐flow 99th %ile ePiE PEC, were below the PNECABR, and thus all risk quotients were ≤0.194, all refined PEC‐per‐country risk quotients were ≤0.0083, and all mean‐ and low‐flow median ePiE PEC risk quotients were ≤0.00033; finally, the highest MEC risk quotient was 0.0103. Both models and measurements imply that throughout Europe, even in the worst‐case scenario of a southern Mediterranean catchment with extremely low river flow in summer, no significant antibiotic resistance risk emerges for MPA.

bacteria = assay: Derivation of provisional PNEC for antibiotic resistance (PNECABR)
Method: as §1
Noto et al. (1969) tested the activity of MPA against various microorganisms, both fungi and some strains of bacteria. […] Higher inhibition of MPA was shown against pathogenic fungi of the genera Candida, Willia, Cryptococcus, Microsporum, Aspergillus, and Trichophyton, with MICs ranging from 3.9 to 500 mg/L (Noto et al. 1969).

[7] = tested on: inosine-5'-monophosphate dehydrogenase (IMPDH); parameters: method as in Wishart et al. 2018; Royal Pharmaceutical Society 2018; conditions: ref Wishart et al. 2018; Royal Pharmaceutical Society 2018; cited from earlier work
[8] = Dissociation constant (pKa) by titration; type: physicochemical; conditions: 25 ± 2 °C
From the text: Syntex derived many basic physicochemical properties for both MPM and MPA in the early 1990s. The results for MPA are mostly given in the present study.

COc1c(C)c2c(c(O)c1CC=C(C)CCC(=O)O)C(=O)OC2 [MPA, 6‐(1,3‐dihydro‐4‐hydroxy‐6‐methoxy‐7‐methyl‐3‐oxo‐5‐isobenzofuranyl)‐4‐methyl‐4‐hexenoic acid]
highest K OC ([1]; in one of the activated sludges): 37 L/kg
activated sludge K d ([1]; two activated sludges): 9.3 L/kg and 13 L/kg
PNECEC10 (aquatic) ([2]; fish EC10, assessment factor of 10): 0.58 µg MPA/L and 0.580 µg MPA/L
PNECNOEC (aquatic) ([2]; fish NOEC, assessment factor of 10): 0.132 µg MPA/L
fraction phase‐I‐metabolized to 6‐O‐desmethyl‐MPA [3]: less than 1%
terminal half‐life [3]: approximately 18 h
ErC50 ([4]; GMMC, 24 h dark + 72 h light, ref European Chemicals Agency 2018): 68 µg/L
ErC10 [4]: 12 µg/L
NOErC [4]: 9 µg/L
acute fish 50% lethal concentration (LC50) (Cyprinus carpio): > 100 µg/mL
k photo ([5]; Solar Box artificial sunlight reactor): 0.004 min^–1
k photo ([5]; UV‐C irradiation): 0.0284 min^–1
UV-C photodegradation ([5]; pH 7, 20 mg/L MPA, ref Marín‐García (2015)): negligible photodegradation
antibiotic resistance risk quotient, highest MEC [6]: 0.0103
antibiotic resistance risk quotients, all mean‐ and low‐flow median ePiE PEC [6]: ≤ 0.00033
antibiotic resistance risk quotients, all refined PEC‐per‐country [6]: ≤ 0.0083
antibiotic resistance risk quotient, STPs ([6]; highest STP effluent MEC 4.19 µg/L): 0.065
antibiotic resistance risk quotient, STPs ([6]; highest refined PECSTP 8.83 µg MPA/L): 0.138
antibiotic resistance risk quotients, surface waters, all PECs ([6]; including Guadalquivir low‐flow 99th %ile ePiE PEC): ≤ 0.194
provisional PNECABR (rounded down, selected) (bacteria; lower of the 2 values): 64 µg MPA/L
first provisional PNECABR (bacteria; lowest MIC divided by 100, following Kümmerer and Henninger (2003)): 312.5 µg/L
second provisional PNECABR (bacteria; procedure of Bengtsson‐Palme and Larsson (2016), before rounding): 76 µg/L
type of inhibition [7]: reversible, potent, and noncompetitive inhibitor
pK a, carboxylic acid [8]: 4.58
pK a, phenolic [8]: 8.045
